US6403343B2, “Method of producing a taxane-type diterpene and a method of obtaining cultured cells which produce the taxane-type dilterpene at a high rate” (Mitsui Chemicals, Inc., priority 1993, dated 2002)

Test system: cultured cells of Taxus baccata LINN
Experiment: Growth rate and taxane yield, 21-day shake culture of Taxus baccata cells with heavy metal compound, amine, antiethylene agent or Ethrel added
Type: cell-based
Experimental: (§1) One gram (fresh weight) of the callus was inoculated to an Erlenmeyer flask containing 20 ml of liquid Woody Plant Medium to which the above-mentioned component was added to give the same concentration and shake culture was carried out with a rotary shaker (amplification of 25 mm, 100 rpm) and the callus was subcultured in every 21 days to accelerate the growth rate thereof.
Then shake culture was carried out at 25° C. for 21 days.
(§2) After completing the culture, cultured cells of Taxus baccata LINN were harvested by filtration and lyophilized, then the dry weight was measured to obtain the growth rate thereof. Taxane-type diterpenes were extracted from the dried callus with methanol and the like, and they were determined by comparing with standard taxol, cephalomannine, and baccatin III using high performance liquid chromatography to measure the yields of the taxane-type diterpenes.
as §1
One gram (fresh weight) of the cultured cells thus obtained was inoculated to an Erlenmeyer flask containing 20 ml of liquid Woody Plant Medium to which the above-mentioned component had been added to give the same concentration, then spermidine was added to it as amine to give the final concentration of 10^−9M-1M. Then shake culture was carried out at 25° C. for 21 days.
as §2, with “cells” for “callus”, “diterpene.” for “diterpenes.”
as §1, with “component had been” for “component was”
One gram (fresh weight) of the cultured cells thus obtained was inoculated to an Erlenmeyer flask containing 20 ml of liquid Woody Plant Medium to which the above-mentioned component had been added to give the same concentration, and shake culture was carried out at 25° C. for 14 days.

[1] = 1 M added on 14th day, 7 more days
[2] = 10^−1 M added on 14th day, 7 more days
[3] = 10^−2 M added on 14th day, 7 more days
[4] = 10^−3 M added on 14th day, 7 more days
[5] = 10^−4 M added on 14th day, 7 more days
[6] = 10^−5 M added on 14th day, 7 more days
[7] = 10^−6 M added on 14th day, 7 more days
[8] = 10^−7 M added on 14th day, 7 more days
[9] = 10^−8 M added on 14th day, 7 more days
[10] = 10^−9 M added on 14th day, 7 more days
[11] = 10^−1 M added at start, 21 days
[12] = 10^−2 M added at start, 21 days
[13] = 10^−3 M added at start, 21 days
[14] = 10^−4 M added at start, 21 days
[15] = 10^−5 M added at start, 21 days
[16] = 10^−6 M added at start, 21 days
[17] = 10^−7 M added at start, 21 days
[18] = 10^−8 M added at start, 21 days
[19] = 10^−9 M added at start, 21 days
[20] = 2×10^−6 M added 5 times at 4 days' intervals from day 0, total 10^−5 M
[21] = 10^−5 M added on 7th day, 14 more days
[22] = 10^−5 M added on 18th day, 3 more days
[23] = 10^−5 M at start + methyl jasmonate 10^−4 M on 14th day
[24] = 10^−5 M at start + methyl jasmonate 10^−4 M on 14th day, oxygen 10% in the gas phase
[25] = 10^−5 M at start, oxygen 10% in the gas phase

CCCOC(=O)c1cc(O)c(O)c(O)c1 [propyl gallate]
growth rate [1]: 1.1 times
total yield of taxane [1]: 0.01 mg/L
yield of baccatin III [1]: 0.01 mg/L
yield of cephalomannine [1]: 0 mg/L
yield of taxol [1]: 0 mg/L
growth rate [2]: 1.9 times
total yield of taxane [2]: 1.38 mg/L
yield of baccatin III [2]: 0.48 mg/L
yield of cephalomannine [2]: 0.25 mg/L
yield of taxol [2]: 0.65 mg/L
growth rate [3]: 2.9 times
total yield of taxane [3]: 7.03 mg/L
yield of baccatin III [3]: 0.69 mg/L
yield of cephalomannine [3]: 2.01 mg/L
yield of taxol [3]: 4.33 mg/L
growth rate [4]: 3.2 times
total yield of taxane [4]: 12.10 mg/L
yield of baccatin III [4]: 0.84 mg/L
yield of cephalomannine [4]: 4.30 mg/L
yield of taxol [4]: 6.96 mg/L
growth rate [5]: 3.0 times
total yield of taxane [5]: 12.27 mg/L
yield of baccatin III [5]: 0.87 mg/L
yield of cephalomannine [5]: 4.42 mg/L
yield of taxol [5]: 6.98 mg/L
growth rate [6]: 3.0 times
total yield of taxane [6]: 16.13 mg/L
yield of baccatin III [6]: 2.82 mg/L
yield of cephalomannine [6]: 5.07 mg/L
yield of taxol [6]: 8.24 mg/L
growth rate [7]: 3.1 times
total yield of taxane [7]: 13.95 mg/L
yield of baccatin III [7]: 1.91 mg/L
yield of cephalomannine [7]: 4.38 mg/L
yield of taxol [7]: 7.66 mg/L
growth rate [8]: 2.7 times
total yield of taxane [8]: 2.79 mg/L
yield of baccatin III [8]: 0.55 mg/L
yield of cephalomannine [8]: 0.72 mg/L
yield of taxol [8]: 1.52 mg/L
growth rate [9]: 2.7 times
total yield of taxane [9]: 1.74 mg/L
yield of baccatin III [9]: 0.42 mg/L
yield of cephalomannine [9]: 0.68 mg/L
yield of taxol [9]: 0.74 mg/L
growth rate [10]: 2.7 times
total yield of taxane [10]: 1.37 mg/L
yield of baccatin III [10]: 0.41 mg/L
yield of cephalomannine [10]: 0.59 mg/L
yield of taxol [10]: 0.37 mg/L

NCCCCN [putrescine]
growth rate (1 M added at start, 21 days): 1.0 times
total yield of taxane (1 M added at start, 21 days): 0.36 mg/L
yield of baccatin III (1 M added at start, 21 days): 0.01 mg/L
yield of cephalomannine (1 M added at start, 21 days): 0.22 mg/L
yield of taxol (1 M added at start, 21 days): 0.13 mg/L
growth rate [11]: 1.1 times
total yield of taxane [11]: 2.74 mg/L
yield of baccatin III [11]: 0.80 mg/L
yield of cephalomannine [11]: 0.97 mg/L
yield of taxol [11]: 0.97 mg/L
growth rate [12]: 1.8 times
total yield of taxane [12]: 3.18 mg/L
yield of baccatin III [12]: 1.13 mg/L
yield of cephalomannine [12]: 0.99 mg/L
yield of taxol [12]: 1.06 mg/L
growth rate [13]: 2.2 times
total yield of taxane [13]: 6.90 mg/L
yield of baccatin III [13]: 1.95 mg/L
yield of cephalomannine [13]: 1.88 mg/L
yield of taxol [13]: 3.07 mg/L
growth rate [14]: 2.6 times
total yield of taxane [14]: 22.65 mg/L
yield of baccatin III [14]: 6.60 mg/L
yield of cephalomannine [14]: 5.25 mg/L
yield of taxol [14]: 10.80 mg/L
growth rate [15]: 3.1 times
total yield of taxane [15]: 23.79 mg/L
yield of baccatin III [15]: 6.98 mg/L
yield of cephalomannine [15]: 5.37 mg/L
yield of taxol [15]: 11.44 mg/L
growth rate [16]: 3.0 times
total yield of taxane [16]: 19.44 mg/L
yield of baccatin III [16]: 5.74 mg/L
yield of cephalomannine [16]: 5.51 mg/L
yield of taxol [16]: 8.19 mg/L
growth rate [17]: 2.7 times
total yield of taxane [17]: 6.88 mg/L
yield of baccatin III [17]: 1.10 mg/L
yield of cephalomannine [17]: 2.31 mg/L
yield of taxol [17]: 3.47 mg/L
growth rate [18]: 2.8 times
total yield of taxane [18]: 2.94 mg/L
yield of baccatin III [18]: 0.40 mg/L
yield of cephalomannine [18]: 1.02 mg/L
yield of taxol [18]: 1.52 mg/L
growth rate [19]: 2.8 times
total yield of taxane [19]: 1.75 mg/L
yield of baccatin III [19]: 0.36 mg/L
yield of cephalomannine [19]: 0.70 mg/L
yield of taxol [19]: 0.69 mg/L

O=[N+]([O-])[O-].[Ag+] [silver nitrate]
growth rate [13]: 2.8 times
total yield of taxane [13]: 23.21 mg/L
yield of baccatin III [13]: 3.01 mg/L
yield of cephalomannine [13]: 7.54 mg/L
yield of taxol [13]: 12.66 mg/L
growth rate [4]: 2.8 times
total yield of taxane [4]: 20.58 mg/L
yield of baccatin III [4]: 2.18 mg/L
yield of cephalomannine [4]: 6.49 mg/L
yield of taxol [4]: 11.91 mg/L

NCCCCNCCCN [spermidine]
growth rate (1 M added at start, 21 days): 1.4 times
total yield of taxane (1 M added at start, 21 days): 0.21 mg/L
yield of baccatin III (1 M added at start, 21 days): 0.10 mg/L
yield of cephalomannine (1 M added at start, 21 days): 0.03 mg/L
yield of taxol (1 M added at start, 21 days): 0.08 mg/L
growth rate [20]: 2.9 times
total yield of taxane [20]: 27.74 mg/L
yield of baccatin III [20]: 6.30 mg/L
yield of cephalomannine [20]: 6.01 mg/L
yield of taxol [20]: 15.43 mg/L
growth rate [11]: 2.1 times
total yield of taxane [11]: 3.35 mg/L
yield of baccatin III [11]: 0.41 mg/L
yield of cephalomannine [11]: 1.00 mg/L
yield of taxol [11]: 1.94 mg/L
growth rate [12]: 2.0 times
total yield of taxane [12]: 7.13 mg/L
yield of baccatin III [12]: 0.82 mg/L
yield of cephalomannine [12]: 2.42 mg/L
yield of taxol [12]: 3.89 mg/L
growth rate [13]: 2.9 times
total yield of taxane [13]: 17.31 mg/L
yield of baccatin III [13]: 2.63 mg/L
yield of cephalomannine [13]: 4.59 mg/L
yield of taxol [13]: 10.09 mg/L
growth rate [14]: 3.1 times
total yield of taxane [14]: 22.23 mg/L
yield of baccatin III [14]: 2.78 mg/L
yield of cephalomannine [14]: 6.49 mg/L
yield of taxol [14]: 12.96 mg/L
growth rate [15]: 3.1 times
total yield of taxane [15]: 33.17 mg/L
yield of baccatin III [15]: 6.59 mg/L
yield of cephalomannine [15]: 7.30 mg/L
yield of taxol [15]: 19.28 mg/L
growth rate [21]: 2.9 times
total yield of taxane [21]: 27.45 mg/L
yield of baccatin III [21]: 6.08 mg/L
yield of cephalomannine [21]: 6.13 mg/L
yield of taxol [21]: 15.24 mg/L
growth rate [6]: 2.9 times
total yield of taxane [6]: 20.98 mg/L
yield of baccatin III [6]: 5.46 mg/L
yield of cephalomannine [6]: 5.32 mg/L
yield of taxol [6]: 10.20 mg/L
growth rate [22]: 3.0 times
total yield of taxane [22]: 11.48 mg/L
yield of baccatin III [22]: 2.95 mg/L
yield of cephalomannine [22]: 2.90 mg/L
yield of taxol [22]: 5.63 mg/L
growth rate [23]: 2.6 times
total yield of taxane [23]: 50.25 mg/L
yield of baccatin III [23]: 18.96 mg/L
yield of cephalomannine [23]: 9.74 mg/L
yield of taxol [23]: 21.55 mg/L
growth rate [24]: 2.6 times
total yield of taxane [24]: 57.89 mg/L
yield of baccatin III [24]: 19.65 mg/L
yield of cephalomannine [24]: 8.57 mg/L
yield of taxol [24]: 29.67 mg/L
growth rate [25]: 2.7 times
total yield of taxane [25]: 40.29 mg/L
yield of baccatin III [25]: 13.43 mg/L
yield of cephalomannine [25]: 7.81 mg/L
yield of taxol [25]: 19.05 mg/L
growth rate [16]: 3.2 times
total yield of taxane [16]: 23.16 mg/L
yield of baccatin III [16]: 3.61 mg/L
yield of cephalomannine [16]: 6.04 mg/L
yield of taxol [16]: 13.51 mg/L
growth rate [17]: 3.1 times
total yield of taxane [17]: 18.89 mg/L
yield of baccatin III [17]: 1.34 mg/L
yield of cephalomannine [17]: 5.79 mg/L
yield of taxol [17]: 11.76 mg/L
growth rate [18]: 3.1 times
total yield of taxane [18]: 4.39 mg/L
yield of baccatin III [18]: 0.66 mg/L
yield of cephalomannine [18]: 1.74 mg/L
yield of taxol [18]: 1.99 mg/L
growth rate [19]: 2.9 times
total yield of taxane [19]: 1.21 mg/L
yield of baccatin III [19]: 0.31 mg/L
yield of cephalomannine [19]: 0.58 mg/L
yield of taxol [19]: 0.32 mg/L
